From patent publication US20220025379A1, “METHODS OF TREATING SCHIZOPHRENIA AND OTHER NEUROPSYCHIATRIC DISORDERS” (UNIVERSITY OF ROCHESTER, priority 2018, published 2022) come the findings set out here.

One assay relates to CTR astrocytes. The experiment in a line: Potassium uptake (86Rb) by CTR astrocytes. It is filed as cell-based, human. As to conditions: CTR glia/astrocytes, 86Rb uptake, 4 lines. The method, then: (§1) Potassium uptake. Astrocytes were plated onto poly-ornithine- and laminin-coated 24-well plates with 30,000 cells/well. For the potassium uptake assay, astrocytes were incubated with ^86Rb (1.0-3.3 μCi/well) for 15 minutes, and then they were washed three time with ice-cold artificial cerebrospinal fluid (aCSF, 500 μL/well). 0.5N NaOH (200 μL/well) was put into each well for cell lysis, which was put into 5 ml cocktail liquid (Ultima Gold, Fisher Scientific, 509050575) and measured by scintillation counter (Beckman Coulter, LS6500), and the results were normalized to both total protein (BCA Protein Assay Kit, Fisher Scientific, 23227) and cell number (Hemocytometer, Fisher Scientific, 02-671-54). The aCSF solution contained (in mM): 124 NaCl, 2.5 KCl, 1.75 NaH2PO4, 2 MgCl2, 2 CaCl2, 0.04 vitamin C, 10 glucose and 26 NaHCO3, pH 7.4.
To address this hypothesis, qPCR was used to confirm whether these K+ channel-associated genes were dysregulated in SCZ glia. […] Next, functional K^+ uptake was assessed directly, in cultured SCZ- and CTR-derived astrocytes. To obtain mature SCZ and CTR astrocyte cultures, CD44− sorted glial progenitors were cultured in base media supplemented with 10% fetal bovine serum (FBS) and 20 ng/ml BMP4 for 4 weeks, so as to potentiate the differentiation of mature, glial fibrillary acidic protein (GFAP)-expressing, fiber-bearing astrocytes (FIGS. 10A-10C). […] Astrocytes from 4 different SCZ and 4 different CTR lines were then incubated with 86Rb, a surrogate monovalent cation for K^+ uptake (Larsen et al., “Contributions of the Na(+)/K(+)-ATPase, NKCC1, and Kir4.1 to Hippocampal K(+) Clearance and Volume Responses,” Glia 62:608-622 (2014), which is hereby incorporated by reference in its entirety), and rubidium uptake measured as a function of both cell number and total protein.

A further assay deals with SCZ astrocytes. The experiment in a line: Potassium uptake (86Rb) by SCZ astrocytes. In kind it is cell-based, human. As to conditions: 86Rb uptake, 4 lines. On the procedure: as §1, with “The aCSF solution contained (in mM): 124 NaCl, 2.5 KCl, 1.75 NaH2PO4, 2 MgCl2, 2 CaCl2, 0.04 vitamin C, 10 glucose and 26 NaHCO3, pH 7.4.” left out
To address this hypothesis, qPCR was used to confirm whether these K+ channel-associated genes were dysregulated in SCZ glia. […] Next, functional K^+ uptake was assessed directly, in cultured SCZ- and CTR-derived astrocytes. […] Astrocytes from 4 different SCZ and 4 different CTR lines were then incubated with 86Rb, a surrogate monovalent cation for K^+ uptake (Larsen et al., “Contributions of the Na(+)/K(+)-ATPase, NKCC1, and Kir4.1 to Hippocampal K(+) Clearance and Volume Responses,” Glia 62:608-622 (2014), which is hereby incorporated by reference in its entirety), and rubidium uptake measured as a function of both cell number and total protein.

Regarding “tertiapin (ALCNCNRIIIPHMCWKKCGKK; UniProt P56587 1-21, looked up) [drug which targets Kir channels]”, the “K+ uptake” value with CTR astrocytes was “did not”. On to `CCCCNc1cc(C(=O)O)cc(S(N)(=O)=O)c1Oc1ccccc1` [bumetanide], for which the “K+ uptake” value in the assay with SCZ astrocytes is reported as “neither ouabain nor bumetanide affected”; with CTR astrocytes it was “significantly inhibited”. Taken in the same sequence, the figures for `C[C@@H]1O[C@@H](O[C@H]2C[C@@H](O)[C@]3(CO)[C@H]4[C@H](O)C[C@]5(C)[C@@H](C6=CC(=O)OC6)CC[C@]5(O)[C@@H]4CC[C@]3(O)C2)[C@H](O)[C@H](O)[C@H]1O` [ouabain] were “neither ouabain nor bumetanide affected” and “significantly inhibited”.
